Read-outs that look alike come from different tables or passages of the source.
Key:
[1] = In vitro plasma protein binding (PPB); format: in vitro ADME; settings: percentage of free/unbound compound
[2] = system: NCI-H1975 cells (EGFR T790M L858R); test: EGFR-SOS cellular inhibition assay (CellTiter-Glo, 3D); format: cell-based; settings: Homo sapiens
[3] = system: MIA PaCa-2 cells (K-Ras G12C); test: Ras-SOS cellular growth inhibition assay (CellTiter-Glo, 3D); format: cell-based; settings: Homo sapiens
In short: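 MIA PaCa-2 cells grown in ultra-low-attachment plates (3D) in DMEM/Ham's F12 with 10% FCS and 2.5% horse serum, treated the day after seeding with a 9-point 3-fold compound series for about 5 days. Viability by CellTiter-Glo luminescence; IC50 from four-parameter fit.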

SOS1 = SOS1 (Homo sapiens (Human), UniProt Q07889); test: Ras-SOS interaction assay (HTRF); format: biochemical
SOS1, sequence (Q07889 564-1049): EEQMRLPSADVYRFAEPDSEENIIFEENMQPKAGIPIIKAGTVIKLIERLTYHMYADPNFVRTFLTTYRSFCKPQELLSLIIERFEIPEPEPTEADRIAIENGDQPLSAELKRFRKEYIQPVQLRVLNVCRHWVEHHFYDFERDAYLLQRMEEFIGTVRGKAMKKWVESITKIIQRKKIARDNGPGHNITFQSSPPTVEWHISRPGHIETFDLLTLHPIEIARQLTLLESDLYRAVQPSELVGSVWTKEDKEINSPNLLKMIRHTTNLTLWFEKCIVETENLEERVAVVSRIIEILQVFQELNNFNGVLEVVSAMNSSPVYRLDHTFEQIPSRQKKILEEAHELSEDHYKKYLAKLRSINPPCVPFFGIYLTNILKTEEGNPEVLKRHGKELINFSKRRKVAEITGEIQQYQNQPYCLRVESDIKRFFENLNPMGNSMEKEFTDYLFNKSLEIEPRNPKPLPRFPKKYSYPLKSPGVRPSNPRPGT

[4] = 120 h, NCI-H1975, 3D proliferation, about 5 days, read-out: Bio-Cell-Prolif-3D (H1975 IC50)
[5] = NCI-H1975, EGFR T790M L858R, read-out: IC50 in inhibiting growth of NCI-H1975 cell line
[6] = MIA PaCa-2, 120 h, MIA PaCa-2, 3D proliferation, about 5 days, read-out: Bio-Cell-Prolif-3D (MiaPaca2 IC50)
[7] = K-RasG13D utilized, read-out: IC50 inhibition of SOS
[8] = K-RasG13D, read-out: IC50 value against SOS1
[9] = MIA PaCa-2, MIA PaCa-2, read-out: IC50 in inhibiting MIA PaCa-2 cell growth

DMPK-invitro-PPB (Mouse Unbound) [%] [1]	IC50 [2, 4]	IC50 [2, 5]	IC50 [3, 6]	IC50 (SOS1; [7])	IC50 (SOS1; [8])	IC50 [3, 9]	SMILES
1.05%	≤ 1000 nM	< 500 nM	≤ 1000 nM	< 100 nM	< 50 nM		COc1nc2ncnc(N[C@H](C)c3cccc(C(F)(F)F)c3C)c2cc1N1CCN(C2CCOCC2)CC1 [Compound 160, (R)-7-methoxy-N-(1-(2-methyl-3-(trifluoromethyl)phenyl)ethyl)-6-(4-(tetrahydro-2H-pyran-4-yl)piperazin-1-yl)pyrido[2,3-d]pyrimidin-4-amine]
2.19%	≤ 1000 nM	< 500 nM	≤ 1000 nM	< 100 nM	< 50 nM		COc1nc2ncnc(N[C@H](C)c3cccc(C(F)(F)F)c3F)c2cc1C1CCN(C(C)C)CC1 [Compound 162, (R)-N-(1-(2-fluoro-3-(trifluoromethyl)phenyl)ethyl)-6-(1-isopropylpiperidin-4-yl)-7-methoxypyrido[2,3-d] pyrimidin-4-amine]
1.6%	≤ 1000 nM	< 500 nM	≤ 1000 nM	< 100 nM	< 50 nM	< 500 nM	COc1nc2ncnc(N[C@H](C)c3cccc(C(F)(F)F)c3F)c2cc1C1CCN(C2CCOCC2)CC1 [Compound 164, (R)-N-(1-(2-fluoro-3-(trifluoromethyl)phenyl)ethyl)-7-methoxy-6-(1-(tetrahydro-2H-pyran-4-yl)piperidin-4-yl)pyrido[2,3-d]pyrimidin-4-amine]
0.12%	≤ 1000 nM	< 500 nM	≤ 1000 nM	< 100 nM	< 50 nM		COc1nc2nc(C)nc(N[C@H](C)c3cccc(C(F)(F)F)c3C)c2cc1N1CCN(C(C)C)CC1 [Compound 171, (R)-6-(4-isopropylpiperazin-1-yl)-7-methoxy-2-methyl-N-(1-(2-methyl-3-(trifluoromethyl)phenyl)ethyl)pyrido[2,3-d]pyrimidin-4-amine]
19.85%	≤ 1000 nM	< 500 nM	≤ 1000 nM	< 100 nM	< 50 nM	< 500 nM	COc1nc2ncnc(N[C@H](C)c3cccc(C(F)(F)C(C)(C)O)c3)c2cc1N1CCN(C(C)C)CC1 [Compound 202, (R)-1,1-difluoro-1-(3-(1-((6-(4-isopropylpiperazin-1-yl)-7-methoxypyrido [2,3-d]pyrimidin-4-yl)amino)ethyl)phenyl)-2-methylpropan-2-ol]
0.41%	≤ 1000 nM	< 500 nM	≤ 1000 nM	< 100 nM	< 50 nM	< 500 nM	COc1nc2nc(C)nc(N[C@H](C)c3cccc(C(F)(F)F)c3F)c2cc1N1CCN(C(C)C)CC1 [Compound 211, (R)-N-(1-(2-fluoro-3-(trifluoromethyl)phenyl)ethyl)-6-(4-isopropylpiperazin-1-yl)-7-methoxy-2-methylpyrido[2,3-d]pyrimidin-4-amine]
0.11%	≤ 1000 nM	< 500 nM	≤ 1000 nM	< 100 nM	< 50 nM	< 500 nM	COc1nc2nc(C)nc(N[C@H](C)c3cccc(C(F)(F)F)c3C)c2cc1C1CCN(C(C)C)CC1 [Compound 236, (R)-6-(1-isopropylpiperidin-4-yl)-7-methoxy-2-methyl-N-(1-(2-methyl-3-(trifluoromethyl)phenyl)ethyl)pyrido [2,3-d]pyrimidin-4-amine]
5.6%	≤ 1000 nM	< 500 nM	≤ 1000 nM	< 100 nM	< 50 nM	< 500 nM	COc1nc2ncnc(N[C@H](C)c3cccc(C(C)(F)F)c3F)c2cc1C1CCS(=O)(=O)CC1 [Compound 267, (R)-4-(4-((1-(3-(1,1-difluoroethyl)-2-fluorophenyl)ethyl)amino)-7-methoxypyrido[2,3-d]pyrimidin-6-yl)tetrahydro-2H-thiopyran 1,1-dioxide]
12.22%	≤ 1000 nM	< 500 nM	≤ 1000 nM	< 100 nM	< 50 nM	< 500 nM	COc1nc2ncnc(N[C@H](C)c3cccc(C(F)(F)C(C)(C)O)c3F)c2cc1N1CCN(C(C)C)CC1 [Compound 273, (R)-1,1-difluoro-1-(2-fluoro-3-(1-((6-(4-isopropylpiperazin-1-yl)-7-methoxypyrido[2,3-d]pyrimidin-4-yl)amino)ethyl)phenyl)-2-methylpropan-2-ol]
0.39%	≤ 1000 nM	< 500 nM	≤ 1000 nM	< 100 nM	< 50 nM	< 500 nM	COc1nc2nc(C)nc(N[C@H](C)c3cccc(C(F)(F)F)c3F)c2cc1C1CCN(C(C)C)CC1 [Compound 287, (R)-N-(1-(2-fluoro-3-(trifluoromethyl)phenyl)ethyl)-6-(1-isopropylpiperidin-4-yl)-7-methoxy-2-methylpyrido[2,3-d]pyrimidin-4-amine]
1.24%	≤ 1000 nM	< 500 nM	≤ 1000 nM	< 100 nM	< 50 nM	< 500 nM	COc1nc2nc(C)nc(N[C@H](C)c3cccc(C(F)(F)F)c3F)c2cc1N1CCS(=O)(=O)CC1 [Compound 305, (R)-4-(4-((1-(2-fluoro-3-(trifluoromethyl)phenyl)ethyl)amino)-7-methoxy-2-methylpyrido[2,3-d]pyrimidin-6-yl)thiomorpholine 1,1-dioxide]
2.91%	≤ 1000 nM	< 500 nM	≤ 1000 nM	< 100 nM	< 50 nM	< 500 nM	COc1nc2ncnc(N[C@H](C)c3cccc(C(F)(F)F)c3F)c2cc1N1CCS(=O)(=O)CC1 [Compound 308, (R)-4-(4-((1-(2-fluoro-3-(trifluoromethyl)phenyl)ethyl)amino)-7-methoxypyrido[2,3-d]pyrimidin-6-yl)thiomorpholine 1,1-dioxide]
9.83%	≤ 1000 nM	< 500 nM	1000 to 10000 nM	< 100 nM	< 50 nM		COc1nc2ncnc(N[C@H](C)c3cccc(C(F)F)c3F)c2cc1N1CCN(C(C)C)CC1 [Compound 316, (R)-N-(1-(3-(difluoromethyl)-2-fluorophenyl)ethyl)-6-(4-isopropylpiperazin-1-yl)-7-methoxypyrido[2,3-d]pyrimidin-4-amine]
6.33%	≤ 1000 nM	< 500 nM	≤ 1000 nM	< 100 nM	< 50 nM	< 500 nM	COc1nc2nc(C)nc(N[C@H](C)c3cccc(C(F)(F)C(C)(C)O)c3F)c2cc1N1CCN(C(C)C)CC1 [Compound 322, (R)-1,1-difluoro-1-(2-fluoro-3-(1-((6-(4-isopropylpiperazin-1-yl)-7-methoxy-2-methylpyrido[2,3-d]pyrimidin-4-yl)amino)ethyl)phenyl)-2-methylpropan-2-ol]
12.8%	≤ 1000 nM	< 500 nM	≤ 1000 nM	< 100 nM	< 50 nM	< 500 nM	COc1nc2nc(C)nc(N[C@H](C)c3cccc(C(F)(F)C(C)(C)O)c3)c2cc1N1CCN(C(C)C)CC1 [Compound 325, (R)-1,1-difluoro-1-(3-(1-((6-(4-isopropylpiperazin-1-yl)-7-methoxy-2-methylpyrido[2,3-d]pyrimidin-4-yl)amino)ethyl)phenyl)-2-methylpropan-2-ol]
15.32%	≤ 1000 nM	< 500 nM	≤ 1000 nM	< 100 nM	< 50 nM		COc1nc2ncnc(N[C@H](C)c3cccc(C(F)F)c3F)c2cc1N1CCS(=O)(=O)CC1 [Compound 339, (R)-4-(4-((1-(3-(difluoromethyl)-2-fluorophenyl)ethyl)amino)-7-methoxypyrido[2,3-d]pyrimidin-6-yl)thiomorpholine 1,1-dioxide]
1.03%	≤ 1000 nM	< 500 nM	≤ 1000 nM	< 100 nM	< 50 nM		COc1nc2ncnc(N[C@H](C)c3cccc(C(F)(F)F)c3C)c2cc1C1CCN(C(C)C)CC1 [Compound 348, (R)-6-(1-isopropylpiperidin-4-yl)-7-methoxy-N-(1-(2-methyl-3-(trifluoromethyl)phenyl)ethyl)pyrido [2,3-d]pyrimidin-4-amine]
0.22%	≤ 1000 nM	< 500 nM	≤ 1000 nM	< 100 nM	< 50 nM	< 500 nM	CCN1CCC(c2cc3c(N[C@H](C)c4cccc(C(F)(F)F)c4C)nc(C)nc3nc2OC)CC1 [Compound 351, (R)-6-(1-ethylpiperidin-4-yl)-7-methoxy-2-methyl-N-(1-(2-methyl-3-(trifluoromethyl)phenyl)ethyl)pyrido [2,3-d]pyrimidin-4-amine]
